These results are taken from patent US11071727B2, “Therapeutic targeting of proteolytic cleavage of the mixed lineage leukemia gene product (MLL1) by taspase1 using kinase inhibitors” (Northwestern University, priority 2018, dated 2021).

In one assay the test system is MLL1. Briefly: Western blot of full-length MLL1 protein levels in cells treated with CKII inhibitors. Format: cell-based, human. Particulars: 30 hours. How it is done:
FIG. 5. CKII inhibitors selectively increase full-length MLL1 protein levels by decreasing the phosphorylation of MLL1 near the cleavage sites. (A) Conservation of the sequences flanking MLL1-CS2, MLL2 and TFIIA cleavage sites and phosphorylated serine and threonine residues after the cleavage sites (highlighted in red). (B) and (C) 293T cells were transfected with vector control (VT), WT, AA or DD reporter constructs of MLL1-p75 or TFIIA. Western blot was performed with anti-Flag antibody for MLL1 (p75: FL, p47: cleaved) or TFIIA (p54: FL, p47: cleaved). (D) and (E) 293T cells were transfected with WT or AA reporter constructs of MLL1-p75 or TFIIA in the presence or absence of HA-taspase1. Western blot was performed with anti-Flag antibody for MLL1 or TFIIA, or anti-HA antibody for taspase1. (F) 293T cells were infected with shRNAs against CKIIα or CKIIα′. Western blot was performed with anti-MLL1C antibody for MLL1 full-length protein levels, and CKIIα or CKIIα′ for knockdown efficiency. (G) 293T cells were treated with DMSO or 10 μM CX-4945 for 30 hours. Cells were harvested and lysed for Western blot against MLL1, MLL2 or TFIIA using β-tubulin as the loading control. (H) and (I) 293T taspase1 KO cells were pre-treated with CX-4945 (3 μM) or TTP22 (10 μM) for 30 hours. Whole cell lysates from the two conditions were incubated with increasing concentrations of his-taspase1 and subject to in vitro taspase1 assay.
FIG. 13. CKII inhibitors increase full-length MLL1 protein levels. (A) Prediction of kinases that phosphorylate MLL1 near the taspase1 cleavage site. (B) Structure of the CKII inhibitors CX-4945, TTP22, DMAT and TTB. (C) Comparison of the IC50 and molecular weight of the four CKII inhibitors. […] Quantification of the band intensities was performed by ImageJ software. (E) and (F) in vitro taspase1 cleavage assay. Taspase1 KO cell lysates were incubated with recombinant his-tagged taspase1 (0, 1, 10, 100 or 1000 ng) and subject to in vitro taspase1 cleavage assay. Cleavage efficiency was shown as the blotting for MLL1 and TFIIA using Hsp90 as the loading control.
Cell culture. […]
For orientation: In western blotting, separated proteins are transferred to a membrane and probed.

For another assay, the system named is JUP and SLC43A2 mRNA. Briefly: mRNA levels of JUP and SLC43A2 genes in SEM cells. Format: cell-based, human. On the procedure:
RNA-seq Analysis. Gene count tables were constructed using HTseq (Anders et al. 2015) with Ensembl gene annotations and used as input for edgeR 3.0.8 (Robinson et al. 2010). Genes with Benjamini-Hochburg adjusted p-values less than 0.01 were considered to be differentially expressed. GO enrichment analysis was evaluated by the MetaScape online software suite (Tripathi et al. 2015).

Take `O=C(O)c1ccc2c(c1)nc(Nc1cccc(Cl)c1)c1ccncc12` [CX-4945, 5-(3-chlorophenylamino)benzo[c][2,6]naphthyridine-8-carboxylic acid]: in the assay on MLL1 (293T cells, 10 μM), the “conversion from cleaved MLL1 to full-length MLL1” value is on record as “increased the conversion from cleaved MLL1 to full-length MLL1”. Besides, the “MLL1 full-length protein levels” value in the assay on MLL1 (293T, MCF7 and HCT116 cells, 0-20 μM, Western blot with MLL1C antibody) is recorded as “dose-dependent increase of MLL1 full-length protein levels”. For the same compound, the “mRNA levels of JUP and SLC43A2 genes” value in the assay with JUP and SLC43A2 mRNA is “decrease of mRNA levels”.
